ChEMBL document CHEMBL1140922, “Detection of metabolite changes in C6 glioma cells cultured with antimitotic oleyl glycoside by 1H MAS NMR” (2009)
The source made the active and inactive calls. No cut-off for these calls is given here.

Legend:
C6 [1] = assay: Effect on metabolic changes in rat C6 cells assessed as increase in choline signal at 10 uM after 48 hrs by NMR analysis; format: functional
C6 [2] = assay: Induction of apoptosis in rat C6 cells assessed as DNA fragmentation at 80 uM after 19 hrs by electrophoresis; format: functional, cell-based
C6 [3] = assay: Cytotoxicity against rat C6 cells assessed as necrotic cells at 80 uM after 19 hrs; format: functional, cell-based
C6 [4] = assay: Induction of apoptosis in rat C6 cells assessed as DNA fragmentation at 40 uM after 19 hrs by electrophoresis; format: functional, cell-based
C6 [5] = assay: Effect on metabolic changes in rat C6 cells assessed as ratio of CoA to creatine at 10 uM after 24 hrs by NMR analysis; format: functional
C6 [6] = assay: Induction of apoptosis in rat C6 cells assessed cell death at > 40 uM; format: functional, cell-based
C6 [7] = assay: Induction of apoptosis in rat C6 cells assessed inhibition of cell division; format: functional, cell-based

For `CCCCCCCC/C=C\CCCCCCCCO[C@H]1O[C@H](CO)[C@@H](O)[C@H](O)[C@H]1NC(C)=O`, the Activity (C6 [1]) was 2.47, the Activity (C6 [2]) was “Active” and the Activity (C6 [3]) was “inactive”. The Activity (C6 [4]) was “Active”, the Ratio (C6 [5]) was 0.32 and the Activity (C6 [6]) was “Active”. For the same compound, the Activity (C6 [7]) was “Active”.
